Patent US20090215713A1, “Use of atp for the manufacture of a medicament for the prevention and treatment of oxidative stress and related conditions” (priority 2004, published 2009)

Tests used:
TNF-α = assay: LPS+PHA-induced TNF-α secretion in whole blood under oxidative stress (H2O2); format: cell-based, human
Protocol: FIG. 10 Effect of ATP on LPS+PHA-induced TNF-α secretion in whole blood from healthy subjects under conditions of oxidative stress. Two concentrations of H2O2 (1 and 10 mM) were added to whole blood, followed by the incubation with the concentrations of ATP. Then, blood was exposed to 10 μg/ml LPS and 1 μg/ml PHA, and incubated for 24 h. The TNF-α released into the supernatants was analyzed using the ELISA method. […] Data are expressed as the mean values; error bars represent SEM.
Whole blood of healthy subjects was collected as described for Experiment 2, and pre-incubated with 1 or 10 mM H2O2 at 5% CO2 and 37° C. for 15 min. Then, ATP was added to the blood at final concentrations of 1-300 μM for the 30 min incubation step, and then incubated as in Experiment 2 with LPS/PHA for 24 hours.

[1] = ESR measurement of DMPO—OH spin adducts during Fenton chemistry; format: biochemical
Protocol: The effect of ATP on the formation or scavenging of hydroxyl radicals, generated by Fenton reagents was measured as DMPO—OH spin adducts in ESR spectra. The ESR studies were performed at room temperature using a Bruker EMX 1273 spectrometer equipped with an ER 4119HS high sensitivity cavity and 12 kW power supply. The following instrument conditions were used: scan range, 60 G; center magnetic field, 3490 G; modulation amplitude, 1.0 G; microwave frequency, 9.86 GHz; time constant, 40.96 ms, scan time, 20.48 ms; number of scans, 50. OH radicals were generated by the Fenton reaction, and 5,5-dimethyl-1-pyrroline N-oxide (DMPO) was used for trapping hydroxyl radicals. Fifty microliters of 10 mM H2O2, 50 μl of 250 mM DMPO, 50 μl milliQ, 50 μl milliQ (control) or sample, and 50 μl 5 mM FeSO4/5 mM EDTA were mixed, and then transferred to a capillary glass tube. After 2 minutes, DMPO—OH spin adducts were measured by ESR. Quantification of the spectra was performed by peak integration using the WIN-EPR spectrum manipulation program.
Electron spin resonance (ESR) studies were performed at room temperature using a Bruker EMX 1273 spectrometer equipped with an ER 4119HS high sensitivity cavity and 12 kW power supply. The following instrument conditions were used: scan range, 60 G; center magnetic field, 3490 G; modulation amplitude, 1.0 G; microwave frequency, 9.86 GHz; time constant, 40.96 ms, scan time, 20.48 ms; number of scans, 50. OH radicals were generated by the Fenton reaction, and 5,5-Dimethyl-1-pyrroline N-oxide (DMPO) was used for trapping hydroxyl radicals. Fifty microliters of 10 mM H2O2, 50 μl 250 mM DMPO, 50 μl milliQ, 50 μl milliQ (blanco) or sample and 50 μl 5 mM FeSO4/5 mM EDTA were mixed, transferred to a capillary glass tube and the DMPO—OH spin adducts were measured after 2 minutes by ESR. Quantification of the spectra (in arbitrary units) was performed by peak integration using the WIN-EPR spectrum manipulation program.

Nc1ncnc2c1ncn2[C@@H]1O[C@H](COP(=O)(O)OP(=O)(O)OP(=O)(O)O)[C@@H](O)[C@H]1O [ATP, Adenosine 5′-triphosphate]
effect on LPS+PHA-induced TNF-α release (TNF-α; 1 or 10 mM H2O2): significantly inhibited
effect on TNF-α release (TNF-α; ATP below 100 μM, 1 or 10 mM H2O2): did not affect
inhibition at 300 µM (TNF-α; Homo sapiens, 300 μM ATP, 1 or 10 mM H2O2, LPS-PHA, read-out: inhibition of TNF-α release): ~50%
effect on DMPO—OH spin adduct formation ([1]; 100 μM): significant inhibition
inhibition of the DMPO—OH spin adduct formation ([1]; highest concentration used (range 0.1 mM-10 mM)): 80% and ≈ 80%
effect on DMPO—OH spin adduct formation vs control (buffer) ([1]; representative ESR spectra, FIG. 1): strongly inhibited
